Tested on: Patienten
Assay: Double-blind crossover clinical study, impedance cardiography (I.C.) in six patients
Assay type: in vivo, Menschen
Description: Im folgenden werden klinische Versuche am Menschen beschrieben, die die Wirkungen der erfindungsgemäßen pharmazeutischen Zubereitung zeigen: • Tabelle 1 zeigt in schematischer Darstellung eine Doppel-Blind-Studie mit der erfindungsgemäßen pharmazeutischen Zubereitung.
Dabei bedeutet "I.C."Impedanz Cardiographie.
Zur Durchführung der Impedanz Cardiographie wird insbesondere verwiesen auf "Biomedical and clinical aspects for coenzyme Q, Volume 1 (1977) Volume 2 (1980), Volume 3 (1981), Volume 4 (1984), Elsevier/North-Holland Biomedical Press, Amsterdam-New York-Oxford" und auf Lee E. Baker (ebenda, Vol. 2,.Seite 289) und schließlich W.G. Kubicek, Aerospace Med. 37 (12), 1208, 1966.
Die Wirkungen der erfindungsgemäßen pharmazeutischen Zubereitung auf das Herz-Schlag-Volumen (SV), das Herz-Zeit-Volumen (CO) und den Heather Index (HI) von sechs Patienten wurden ermittelt und in der folgenden Tabelle 2 zusammengestellt.
Den sechs Patienten wurden gemäß Tabelle II gegeben: • CoQ10 : 3 x 33 mg = 99 mg täglich • Placebo : Oleum arachidis Vol.(eine Kapsel 0,5 ml) • CoQ10 + Vitamin E : (3 x 33 mg) + (3 x 100 mg) zusammen in 3 Kapseln täglich gelöst in Oleum arachidis • Vitamin E : 3 x 100 mg täglich (= 3 Kapseln . täglich). [formula]

[1] = oral capsules daily, impedance cardiography, result in words

For COC1=C(OC)C(=O)C(C/C=C(\C)CC/C=C(\C)CC/C=C(\C)CC/C=C(\C)CC/C=C(\C)CC/C=C(\C)CC/C=C(\C)CC/C=C(\C)CC/C=C(\C)CCC=C(C)C)=C(C)C1=O [CoQ10, 2.3-Dimethoxy-5-methyl-1.4-benzochinon mit einer isoprenoiden Seitenkette, mit 10 Dihydroisopren-Einheiten], the “Steigerung des Herzminutenvolumens (CO)” value (oral capsules daily (CoQ10 3 x 33 mg; combination 3 x 33 mg + 3 x 100 mg Vitamin E), versus controls, placebo and Vitamin E alone) was ~20%, the “Heather Index (HI)” value [1] was “Ähnliches gilt” and the “Schlagvolumen (SV)” value [1] was “Ähnliches gilt”.

Reference: patent EP0198172A1, “Pharmaceutical preparation” (HERMES Fabrik pharmazeutischer Präparate Franz Gradinger …, priority 1985, dated 1986)
